What was measured:
[1] = system: Sprague Dawley rats; test: Rapid insulin sensitivity test (RIST) following 24 hour fast; format: in vivo, rat; details: male rats fasted 24 hours; constant i.v. infusion of phentolamine; FIG. 3
From the text: HISS-dependent and HISS-independent insulin action can be most readily quantitated using the rapid insulin sensitivity test (RIST) which is a transient euglycemic clamp in response to a bolus administration of insulin. […] The RIST method uses variable glucose infusion rates to maintain the blood glucose level constant. The amount of glucose required to be administered in order to maintain the glycemic baseline is the index of insulin sensitivity and is referred to as the RIST index. The RIST index produced by this procedure consists of a HISS-dependent component and a HISS-independent component that can be readily differentiated by testing in the control fed state and then repeating the test after blockade of HISS release by any of a number of means including surgical denervation of the liver, blockade of hepatic muscarinic receptors, blockade of hepatic nitric oxide production, or blockade of hepatic cyclooxygenase. […] Blockade of HISS release results in HDIR. […] In order to determine whether HISS played a role in controlling glycogenolysis in response to acute trauma, fully anesthetized, fed, male, Sprague Dawley rats were prepared surgically according to the standard animal preparation used to conduct a rapid insulin sensitivity test (RIST) (Lautt et al., 1998). […] Blood was then withdrawn at a rate of 0.5 ml/min to decrease arterial pressure to 50 mm Hg. […]

[2] = system: Sprague Dawley rats; test: Rapid insulin sensitivity test (RIST) following 18 hour fast; format: in vivo, rat; details: male rats fasted 18 hours; bolus 600 μg/kg ipv phentolamine; FIG. 4
Experimental: Blockade of HISS release results in HDIR.
Male, Sprague Dawley rats were fed normal rat pellets and then fasted for a 18-hour period (with free access to water) prior to administration of pentobarbital sodium anesthesia and standard RIST methodology surgical preparation as described in Example One.
Following fasting, the animals were administered a bolus dose of 600 μg/kg ipv of phentolamine or a bolus dose of 600 μg/kg ipv of phentolamine and 5 μg/kg ipv of arecoline.

`Cc1ccc(N(CC2=NCCN2)c2cccc(O)c2)cc1` [phentolamine] was tested, and the “insulin action (RIST)” value [1] was “significantly restored toward normal levels” and the “insulin action (RIST)” value [2] was “restoration of insulin action”.

— patent US20070238762A1, “Use of Antagonists of Hepatic Sympathetic Nerve Activity” (DiaMedica Inc., priority 2003, published 2007)
